The values that follow come from PMC3445516 (PLoS ONE, 2012).

What all share (test): Ambit kinase profiling, competition binding
The target of experiment [1] is T1, ADCK3 (Homo sapiens, UniProt Q8NI60).
T1 construct: purchased Ambit Biosciences (KINOMEscan)
The protocol:
(§1) Also included in the kinase profile are four isoforms of PKC (δ, ε, η, θ) and eight isoforms of CAMKs (CAMKIα, δ, γ; CAMKIIα, β, δ, γ; CAMK4).
(§2) The global kinase profiling experiment was performed by Ambit Biosciences.

The target of experiment [2] is T2, TNNI3K (Homo sapiens, UniProt Q59H18).
T2 construct: purchased Ambit Biosciences (KINOMEscan)
T2 sequence (Q59H18 1-835): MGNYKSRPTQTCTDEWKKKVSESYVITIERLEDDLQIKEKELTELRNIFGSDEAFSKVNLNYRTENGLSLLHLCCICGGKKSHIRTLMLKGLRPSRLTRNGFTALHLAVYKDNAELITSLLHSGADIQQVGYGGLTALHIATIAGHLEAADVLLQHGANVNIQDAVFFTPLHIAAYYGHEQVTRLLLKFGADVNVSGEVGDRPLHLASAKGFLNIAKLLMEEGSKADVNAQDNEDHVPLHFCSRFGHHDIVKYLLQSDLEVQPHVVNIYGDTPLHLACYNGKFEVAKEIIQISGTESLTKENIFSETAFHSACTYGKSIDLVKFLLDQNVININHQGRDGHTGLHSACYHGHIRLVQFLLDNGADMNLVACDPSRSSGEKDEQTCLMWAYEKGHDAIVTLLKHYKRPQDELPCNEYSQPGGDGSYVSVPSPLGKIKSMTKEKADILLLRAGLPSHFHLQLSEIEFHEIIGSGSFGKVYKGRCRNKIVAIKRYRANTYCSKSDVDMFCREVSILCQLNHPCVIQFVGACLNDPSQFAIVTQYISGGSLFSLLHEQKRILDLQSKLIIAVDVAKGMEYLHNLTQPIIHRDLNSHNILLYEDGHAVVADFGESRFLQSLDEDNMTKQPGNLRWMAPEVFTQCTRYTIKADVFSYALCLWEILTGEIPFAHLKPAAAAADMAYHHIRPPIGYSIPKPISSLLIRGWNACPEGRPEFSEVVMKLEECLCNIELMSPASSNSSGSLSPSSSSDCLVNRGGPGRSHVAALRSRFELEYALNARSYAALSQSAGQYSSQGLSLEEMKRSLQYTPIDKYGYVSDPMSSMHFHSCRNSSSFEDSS
The protocol: as §1, §2

Experiment [3] addresses T3, MRCKB (Homo sapiens, UniProt Q9Y5S2).
T3 construct: purchased Ambit Biosciences (KINOMEscan)
The procedure:
as §1, §2

The target of experiment [4] is T4, PCTK2 (Homo sapiens, UniProt Q00537).
T4 construct: purchased Ambit Biosciences (KINOMEscan)
The protocol:
as §1, §2

The target of experiment [5] is T5, FRK (Homo sapiens, UniProt P42685).
T5 construct: purchased Ambit Biosciences (KINOMEscan)
The protocol: as §1, §2

Experiment [6] deals with T6, CLK2 (Homo sapiens, UniProt P49760).
T6 construct: purchased Ambit Biosciences (KINOMEscan)
The procedure:
as §1, §2

Experiment [7] concerns the target T7, ADCK4 (Homo sapiens, UniProt Q96D53).
T7 construct: purchased Ambit Biosciences (KINOMEscan)
T7 sequence (Q96D53 1-544): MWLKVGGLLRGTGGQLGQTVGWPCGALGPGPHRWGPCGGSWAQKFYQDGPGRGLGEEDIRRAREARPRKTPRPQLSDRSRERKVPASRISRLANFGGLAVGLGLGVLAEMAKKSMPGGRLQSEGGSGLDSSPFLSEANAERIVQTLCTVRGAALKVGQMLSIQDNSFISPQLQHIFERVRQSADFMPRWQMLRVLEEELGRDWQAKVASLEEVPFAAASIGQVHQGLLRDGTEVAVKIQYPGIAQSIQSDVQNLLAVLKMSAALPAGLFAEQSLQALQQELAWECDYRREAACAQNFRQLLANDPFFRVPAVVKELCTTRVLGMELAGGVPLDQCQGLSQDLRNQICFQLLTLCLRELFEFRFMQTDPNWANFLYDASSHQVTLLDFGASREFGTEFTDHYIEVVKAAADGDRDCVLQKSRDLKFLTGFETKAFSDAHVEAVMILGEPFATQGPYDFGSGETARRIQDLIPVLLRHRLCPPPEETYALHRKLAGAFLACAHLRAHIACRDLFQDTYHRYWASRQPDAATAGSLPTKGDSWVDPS
The protocol: as §1, §2

Experiment [8] addresses T8, AURKC (Homo sapiens, UniProt Q9UQB9).
T8 construct: purchased Ambit Biosciences (KINOMEscan)
T8 sequence (Q9UQB9 1-309): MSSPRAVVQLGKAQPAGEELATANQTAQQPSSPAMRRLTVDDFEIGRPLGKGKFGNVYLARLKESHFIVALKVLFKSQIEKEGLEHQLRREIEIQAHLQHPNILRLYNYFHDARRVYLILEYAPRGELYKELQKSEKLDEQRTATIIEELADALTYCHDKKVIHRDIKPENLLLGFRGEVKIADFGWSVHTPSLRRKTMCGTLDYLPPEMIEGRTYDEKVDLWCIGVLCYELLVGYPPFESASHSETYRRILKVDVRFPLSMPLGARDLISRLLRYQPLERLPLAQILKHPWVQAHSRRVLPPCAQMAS
The procedure:
as §1, §2

Experiment [9] addresses T9, CAMKIα (Homo sapiens, UniProt Q14012).
T9 construct: purchased Ambit Biosciences (KINOMEscan)
Conditions: for competition: CAMKIα, 10 µM. The protocol:
as §1, §2

Experiment [10] has as its target T10, EGFR(L747-S752del, P753S) (Homo sapiens, UniProt P00533, DEL747-752/P753S).
T10 construct: purchased Ambit Biosciences (KINOMEscan)
Conditions: for % Competition: 10 µM. The protocol: as §1, §2

For experiment [11], the target named is T11, GSK3B (Homo sapiens, UniProt P49841).
T11 construct: purchased Ambit Biosciences (KINOMEscan)
The protocol:
as §1, §2

Experiment [12] deals with T12, ROCK2 (Homo sapiens, UniProt O75116).
T12 construct: purchased Ambit Biosciences (KINOMEscan)
The protocol: as §1, §2

Where two headings read alike, the source gives them in different places.

T6 sequence (P49760 whole entry): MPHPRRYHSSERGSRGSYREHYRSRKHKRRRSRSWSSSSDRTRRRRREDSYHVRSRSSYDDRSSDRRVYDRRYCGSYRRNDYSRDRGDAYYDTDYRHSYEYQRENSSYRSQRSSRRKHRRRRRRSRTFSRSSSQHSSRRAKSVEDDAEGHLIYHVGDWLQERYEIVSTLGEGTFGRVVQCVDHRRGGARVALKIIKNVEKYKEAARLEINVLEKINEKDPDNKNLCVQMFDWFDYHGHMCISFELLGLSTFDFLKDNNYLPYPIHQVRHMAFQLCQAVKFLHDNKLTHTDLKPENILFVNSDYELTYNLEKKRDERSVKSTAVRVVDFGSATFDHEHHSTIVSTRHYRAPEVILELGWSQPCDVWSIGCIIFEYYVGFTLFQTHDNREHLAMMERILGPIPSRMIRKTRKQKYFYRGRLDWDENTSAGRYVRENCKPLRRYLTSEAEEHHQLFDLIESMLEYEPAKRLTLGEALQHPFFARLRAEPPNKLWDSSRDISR
T1 sequence (Q8NI60 163-647): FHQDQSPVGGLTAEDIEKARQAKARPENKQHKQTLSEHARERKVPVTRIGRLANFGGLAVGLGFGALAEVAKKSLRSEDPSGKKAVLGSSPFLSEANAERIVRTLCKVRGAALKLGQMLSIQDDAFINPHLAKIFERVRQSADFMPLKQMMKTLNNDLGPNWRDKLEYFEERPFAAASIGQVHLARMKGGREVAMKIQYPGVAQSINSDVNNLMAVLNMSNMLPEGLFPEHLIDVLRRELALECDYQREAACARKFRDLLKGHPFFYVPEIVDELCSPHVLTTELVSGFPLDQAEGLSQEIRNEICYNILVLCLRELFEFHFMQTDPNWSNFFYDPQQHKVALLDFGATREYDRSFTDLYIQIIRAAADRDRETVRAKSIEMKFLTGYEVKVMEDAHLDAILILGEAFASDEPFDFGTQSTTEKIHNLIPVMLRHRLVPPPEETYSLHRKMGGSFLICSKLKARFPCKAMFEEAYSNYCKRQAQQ
T9 sequence (Q14012 whole entry): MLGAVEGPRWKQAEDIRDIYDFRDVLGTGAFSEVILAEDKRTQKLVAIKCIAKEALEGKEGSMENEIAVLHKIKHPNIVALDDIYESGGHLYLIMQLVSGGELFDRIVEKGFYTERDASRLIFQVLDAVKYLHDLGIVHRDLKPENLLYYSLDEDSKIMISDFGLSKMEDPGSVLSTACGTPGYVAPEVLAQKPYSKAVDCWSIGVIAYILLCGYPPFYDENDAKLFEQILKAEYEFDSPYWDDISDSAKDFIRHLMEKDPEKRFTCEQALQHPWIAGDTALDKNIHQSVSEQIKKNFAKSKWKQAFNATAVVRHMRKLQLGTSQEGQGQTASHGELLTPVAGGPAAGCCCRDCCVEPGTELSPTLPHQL
T12 sequence (O75116 whole entry): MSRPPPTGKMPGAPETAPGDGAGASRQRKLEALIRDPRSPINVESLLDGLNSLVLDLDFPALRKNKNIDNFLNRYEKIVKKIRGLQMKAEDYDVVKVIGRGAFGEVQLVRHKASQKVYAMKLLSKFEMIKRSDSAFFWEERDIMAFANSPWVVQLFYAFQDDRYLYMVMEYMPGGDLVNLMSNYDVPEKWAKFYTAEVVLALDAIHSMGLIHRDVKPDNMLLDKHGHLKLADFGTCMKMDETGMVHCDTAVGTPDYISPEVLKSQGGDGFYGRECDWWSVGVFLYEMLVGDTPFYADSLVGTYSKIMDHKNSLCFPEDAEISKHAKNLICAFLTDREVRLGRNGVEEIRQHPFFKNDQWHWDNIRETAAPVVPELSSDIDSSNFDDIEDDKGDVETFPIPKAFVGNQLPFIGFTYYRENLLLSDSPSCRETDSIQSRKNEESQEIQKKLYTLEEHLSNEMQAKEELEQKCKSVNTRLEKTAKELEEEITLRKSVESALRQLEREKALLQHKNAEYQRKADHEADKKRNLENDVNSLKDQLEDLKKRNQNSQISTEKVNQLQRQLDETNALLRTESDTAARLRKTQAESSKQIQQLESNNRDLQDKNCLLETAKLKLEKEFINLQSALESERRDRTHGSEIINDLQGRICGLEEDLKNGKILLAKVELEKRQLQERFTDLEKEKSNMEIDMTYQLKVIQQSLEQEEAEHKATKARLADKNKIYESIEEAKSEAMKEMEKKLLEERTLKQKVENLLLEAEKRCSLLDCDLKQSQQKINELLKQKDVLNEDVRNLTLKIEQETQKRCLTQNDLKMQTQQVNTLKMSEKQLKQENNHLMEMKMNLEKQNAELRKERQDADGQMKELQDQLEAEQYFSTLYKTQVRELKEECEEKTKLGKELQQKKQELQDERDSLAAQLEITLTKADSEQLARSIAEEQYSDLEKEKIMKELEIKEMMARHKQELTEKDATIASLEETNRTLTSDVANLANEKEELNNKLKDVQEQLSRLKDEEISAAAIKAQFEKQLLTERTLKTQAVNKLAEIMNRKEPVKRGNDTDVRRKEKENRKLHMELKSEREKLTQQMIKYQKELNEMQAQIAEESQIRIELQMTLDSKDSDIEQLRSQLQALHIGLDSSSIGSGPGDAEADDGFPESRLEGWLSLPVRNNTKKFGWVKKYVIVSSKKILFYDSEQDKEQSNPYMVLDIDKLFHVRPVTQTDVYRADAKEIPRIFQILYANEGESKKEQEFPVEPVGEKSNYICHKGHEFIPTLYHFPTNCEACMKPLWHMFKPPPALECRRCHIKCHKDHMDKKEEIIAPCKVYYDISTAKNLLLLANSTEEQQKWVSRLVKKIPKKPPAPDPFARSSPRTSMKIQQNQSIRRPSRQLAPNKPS
T4 sequence (Q00537 whole entry): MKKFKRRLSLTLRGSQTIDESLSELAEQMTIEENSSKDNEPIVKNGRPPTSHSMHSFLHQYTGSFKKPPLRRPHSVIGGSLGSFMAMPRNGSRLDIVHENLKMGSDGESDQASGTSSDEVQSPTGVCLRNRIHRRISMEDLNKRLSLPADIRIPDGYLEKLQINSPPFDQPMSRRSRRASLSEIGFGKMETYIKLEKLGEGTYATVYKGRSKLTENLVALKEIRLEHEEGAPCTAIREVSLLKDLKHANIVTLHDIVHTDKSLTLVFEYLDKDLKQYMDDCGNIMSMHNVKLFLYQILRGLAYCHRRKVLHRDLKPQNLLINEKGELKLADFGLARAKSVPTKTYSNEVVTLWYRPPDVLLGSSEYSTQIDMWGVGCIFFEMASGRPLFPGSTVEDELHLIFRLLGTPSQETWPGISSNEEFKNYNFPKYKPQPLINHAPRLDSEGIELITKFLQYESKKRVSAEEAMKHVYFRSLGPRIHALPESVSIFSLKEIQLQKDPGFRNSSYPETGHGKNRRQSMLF
T11 sequence (P49841 whole entry): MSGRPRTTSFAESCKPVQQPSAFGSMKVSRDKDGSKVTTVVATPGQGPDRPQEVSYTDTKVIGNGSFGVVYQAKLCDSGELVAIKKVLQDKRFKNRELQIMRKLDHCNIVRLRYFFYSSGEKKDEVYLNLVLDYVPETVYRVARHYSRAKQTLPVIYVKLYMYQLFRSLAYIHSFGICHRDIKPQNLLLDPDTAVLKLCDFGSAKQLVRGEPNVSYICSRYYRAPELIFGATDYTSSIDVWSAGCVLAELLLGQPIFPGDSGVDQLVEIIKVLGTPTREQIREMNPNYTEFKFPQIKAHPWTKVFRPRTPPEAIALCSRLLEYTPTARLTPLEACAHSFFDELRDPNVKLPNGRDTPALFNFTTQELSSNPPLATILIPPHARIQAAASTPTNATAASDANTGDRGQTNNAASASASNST
T5 sequence (P42685 whole entry): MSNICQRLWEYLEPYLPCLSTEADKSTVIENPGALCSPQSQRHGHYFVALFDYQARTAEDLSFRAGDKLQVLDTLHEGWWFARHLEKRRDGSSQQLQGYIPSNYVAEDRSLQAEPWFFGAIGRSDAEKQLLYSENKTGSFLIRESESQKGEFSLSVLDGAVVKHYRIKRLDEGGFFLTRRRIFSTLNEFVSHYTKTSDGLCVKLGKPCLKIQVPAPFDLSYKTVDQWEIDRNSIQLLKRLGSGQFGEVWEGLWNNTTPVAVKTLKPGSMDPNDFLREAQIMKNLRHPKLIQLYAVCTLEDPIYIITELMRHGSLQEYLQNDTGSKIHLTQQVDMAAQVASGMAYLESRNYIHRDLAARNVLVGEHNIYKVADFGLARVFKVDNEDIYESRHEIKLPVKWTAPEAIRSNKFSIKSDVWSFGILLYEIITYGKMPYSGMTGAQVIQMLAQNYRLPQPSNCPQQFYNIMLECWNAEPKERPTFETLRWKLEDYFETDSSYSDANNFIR

As to `CC(O)CNc1cc(-c2[nH]c3cccnc3c2-c2ccc(F)cc2)ccn1` (stereo not drawn) [Compound 140], the inhibition at 10 µM in experiment [1] (read-out: % Competition) was 90%; in [2] (read-out: % Competition) it was less than 50%; in experiment [3] (read-out: % Competition) it was less than 50%; in [4] (read-out: % Competition) it was less than 50%; in experiment [5] (read-out: % Competition), less than 50%; in experiment [6] (read-out: % Competition), less than 50%. Besides, the inhibition at 10 µM in experiment [7] (read-out: % Competition) is 98%; in experiment [8] (read-out: % Competition) it was less than 50%; in experiment [11] (read-out: % Competition), less than 50%; in experiment [12] (read-out: % Competition), less than 50%. The molecule also showed a competition in [9] of less than 50%. In addition, the “% Competition” value in [10] came out at 84%.
Turning to `Fc1ccc(-c2c(-c3ccncc3)[nH]c3nccnc23)cc1` [RO1155697-000-005], the inhibition at 10 µM in experiment [1] (ADCK3, compound concentration 10 uM, read-out: Percent Competition) worked out at 83%; in experiment [2] (TNNI3K, compound concentration 10 uM, read-out: Percent Competition) it was 67%; in experiment [3] (MRCKB, compound concentration 10 uM, read-out: Percent Competition) it was 98%; in experiment [4] (PCTK2, compound concentration 10 uM, read-out: Percent Competition), 78%; in [5] (FRK, compound concentration 10 uM, read-out: Percent Competition), 85%; in experiment [6] (CLK2, compound concentration 10 uM, read-out: Percent Competition), 97%. For the same molecule, the inhibition at 10 µM is 94% in experiment [7] (ADCK4, compound concentration 10 uM, read-out: Percent Competition); 86% in [8] (AURKC, compound concentration 10 uM, read-out: Percent Competition); less than 50% in experiment [9] (CAMK1, compound concentration 10 uM, read-out: Percent Competition); 96% in experiment [11] (GSK3B, compound concentration 10 uM, read-out: Percent Competition); 89% in experiment [12] (ROCK2, compound concentration 10 uM, read-out: Percent Competition). For the same molecule, the “Percent Competition” value in experiment [10] (compound concentration 10 uM) came out at 95%.
Turning to `Fc1ccc(-c2c(-c3ccncc3)[nH]c3nccnc23)cc1` [Compound 122], the inhibition at 10 µM came out at 83% in experiment [1] (ADCK3, 10 µM, read-out: % Competition); 67% in [2] (TNNI3K, 10 µM, read-out: % Competition); 98% in experiment [3] (MRCKB, 10 µM, read-out: % Competition); 78% in [4] (PCTK2, 10 µM, read-out: % Competition); 85% in experiment [5] (FRK, 10 µM, read-out: % Competition); 97% in experiment [6] (CLK2, 10 µM, read-out: % Competition). In addition, the inhibition at 10 µM turned out to be 94% in experiment [7] (ADCK4, 10 µM, read-out: % Competition); 86% in [8] (AURKC, 10 µM, read-out: % Competition); 96% in experiment [11] (GSK3B, 10 µM, read-out: % Competition); 89% in [12] (ROCK2, 10 µM, read-out: % Competition). The same molecule registered a competition in [9] of less than 50%. In addition, in [10], the “% Competition” value is 95%.
